Results on one compound are retold here after EPA's ToxValDB 9.5 (doi:10.2903/j.efsa.2015.4308).

Data set [1] deals with Typhlodromus pyri. Put plainly: LR50; higher = less toxic. The settings on record: not reported; mortality.
In data set [2] the test system is Aphidius rhopalosiphi. Put plainly: LR50; higher = less toxic. Particulars: not reported; mortality.
In data set [3] the test system is Canidae. The settings on record: chronic; duration: 1 years; oral; F; Dog Other; body weight.
Data set [4] has as its system Rattus norvegicus.
Data set [5] deals with Anas platyrhynchos.
Data set [6] relates to Hypoaspis aculeifer. The settings on record: chronic/long-term.
In data set [7] the test system is Folsomia candida. Particulars: chronic/long-term.
In data set [8] the test system is Pimephales promelas. The settings on record: chronic/long-term; duration: 34 days; growth.
The subject of data set [9] is Bibionidae. The settings on record: chronic/long-term.
Data set [10] relates to Oryctolagus sp. The settings on record: reproduction developmental; body weight.
Data set [11] concerns Tagia sp.
For data set [12], the system named is Daphnia magna. The settings on record: chronic/long-term; duration: 21 days; reproduction.
Data set [13] relates to Oncorhynchus mykiss. The settings on record: acute; duration: 96 hours; mortality.

The NOAEL is the highest dose or exposure tested at which no adverse effect was seen. On to `[Br-].[Br-].c1cc[n+]2c(c1)-c1cccc[n+]1CC2` [Diquat dibromide], for which the LR50 in [1] was determined as 2.9 g/ha; in data set [2], 3.2 g/ha. Also, the NOAEL in data set [3] turned out to be 0.5 mg/kg-day; in [4] (chronic, duration: 2 years, ophthalmoscopic examination), 0.2 mg/kg-day; in data set [4] (reproduction developmental), 0.2 mg/kg-day; in data set [5] (reproductive), 0.5 mg/kg-day; in [10], 1 mg/kg-day. Also, the LD50 was 214 mg/kg-day in data set [4] (acute, M, mortality) and 71 mg/kg-day in data set [5] (acute, oral, unspecified, mortality). Also, the NOEC in [6] stood at 50 mg/kg; in [7] it was 9.38 mg/kg; in data set [8], 120 µg/L; in data set [9] (duration: 20 days), 100 mg/kg; in [9] (duration: 28 days) it was 1270 µg/L; in data set [11] (chronic/long-term, duration: 8 weeks) it was 37 mg/kg. Besides, in [12], the NOEC worked out at 125 µg/L. Moreover, the LC50 in [11] (acute, duration: 14 days, mortality) worked out at 94.3 mg/kg; in [13], 6.1 µg/mL.
